From patent US12090153B2, “Combination therapy for the treatment of uveal melanoma” (The Board of Trustees of the University of Illinois, priority 2018, dated 2024)

Tests used:
[1] = GLP dog PK/preclinical PAC-1 toxicity studies; format: in vivo
UM cell line MEL270 = assay: Screen of PAC-1 in combination with kinase inhibitors, percent cell death; format: cell-based; conditions: MEL270, 72-hour incubation, single agents and combination at the same concentrations (FIG. 2)
Description: FIG. 2. […] These three types of fusion proteins are key driver alterations in multiple cancer types.

[2] = PAC-1 clinical study in human patients, safety; format: in vivo
Experimental: PAC-1 has been dosed in 34 human patients through 7 dose levels of PAC-1 (range: 75-750 mg). Two patients progressed during the first cycle of PAC-1 therapy. Thirty-two patients received PAC-1 for at least 2 dosing cycles (a cycle is 21 days of daily dosing followed by 7 days of no drug). As a result of stable disease responses, six patients received PAC-1 for 4 cycles, three patients received PAC-1 for 6 cycles and two patients received PAC-1 for 10 cycles.

MEL270 = assay: PAC-1 single agent IC50 in uveal melanoma cell line, 72-hour incubation; format: cell-based; conditions: MEL270, GNAQ Mutant Q209P, error s.e.m.
Description: (§1) UM cell lines express procaspase-3 (FIG. 1), and PAC-1 has activity as a single agent in a panel of UM cell lines (Table D). [table]

OMM1 = assay: as above; format: cell-based; conditions: OMM-1, OMM1, GNA11 Mutant Q209L, error s.e.m.
Description: as §1

MEL290 = assay: as above; format: cell-based; conditions: MEL290, GNAQ/11 WT, error s.e.m.
Description: as §1

MEL285 = assay: as above; format: cell-based; conditions: MEL285, GNAQ/11 WT, error s.e.m.
Description: as §1

OMM2.5 = assay: as above; format: cell-based; conditions: OMM2.5, GNAQ Mutant Q209P, error s.e.m.
Description: as §1

MEL202 = assay: as above; format: cell-based; conditions: MEL202, GNAQ Mutant Q209L, R210K, error s.e.m.
Description: as §1

92.1 = assay: as above; format: cell-based; conditions: 92.1, GNAQ Mutant Q209L, error s.e.m.
Description: as §1

[3] = cited from earlier work
[4] = test system: ROS1-rearranged lung cancers; conditions: cited from earlier work

Row | IC50 (MEL270) [µM] | IC50 (OMM1) [µM] | IC50 (MEL290) [µM] | IC50 (MEL285) [µM] | IC50 (OMM2.5) [µM] | IC50 (MEL202) [µM] | IC50 (92.1) [µM] | Compound | Brain tissue findings [1] | Percent cell death (UM cell line MEL270) [%] | serious adverse events (SAEs) associated with PAC-1 administration ([2]; 34 human patients, 7 dose levels, 75-750 mg) | neurotoxicity associated with PAC-1 dosing ([2]; neurological and neurocognitive assessments through dose level 7 (750 mg)) | treatment-related adverse events of any grade: myalgias ([3]; n=27/119) [%] | treatment-related adverse events of any grade: nausea ([3]; n=33/119) [%] | treatment-related adverse events of any grade: paresthesias ([3]; n=34/119) [%] | treatment-related adverse events of any grade: dysgeusia ([3]; n=50/119) [%] | treatment-related adverse events of any grade: fatigue/asthenia ([3]; n=55/119) [%] | Disease control and progression-free survival [4]
1 | 9.8 ± 0.6 | 4 ± 0.8 | 11.7 ± 1.2 | 7.4 ± 2.6 | 9.5 ± 0.5 | 10.3 ± 0.2 | 3.6 ± 0.7 | C=CCc1cccc(/C=N/NC(=O)CN2CCN(Cc3ccccc3)CC2)c1O [PAC-1] | brain tissue changes observed | ~16 | No serious adverse events | no conclusive signs of neurotoxicity | – | – | – | – | – | –
2 | – | – | – | – | – | – | – | CN1CCN(c2ccc(C(=O)Nc3n[nH]c4ccc(Cc5cc(F)cc(F)c5)cc34)c(NC3CCOCC3)c2)CC1 [entrectinib] | – | ~16 | – | – | 23 | 28 | 29 | 42 | 46 | durable disease control and prolonged progression-free survival
